Positions of bridges follow the written chain, without caps; N, C: chain ends. Residues, ends and D or L forms follow the SMILES beside them.

One test addresses T1, HTRA1^PD(SA) (Homo sapiens, UniProt Q92743, S328A).
T1 construct: The protease domains of human HTRA1 (HTRA1^PD; D161-K379); made in house; host or cells: E. coli
Kind of test: SPR binding kinetics to HTRA1^PD(SA). The following applies: mean ± S.D. of three or more independent experiments. On the procedure:
Surface plasmon resonance (SPR) experiments were performed using a Biacore S200 instrument at 25 °C. His-tagged HTRA proteins were captured on a CM5 sensor chip using the His-capture kit (GE Healthcare). Protein concentrations used for immobilization were as follows; HTRA1^PD(SA), HTRA1^PD and HTRA1^PD-ABP 2 µg/ml with 60-s injections at 10 µl/min, HTRA2^PD/PDZ, HTRA3^PD/PDZ, and HTRA4^PD/PDZ 4 µg/ml with 60-s injections at 10 µl/min. Approximate immobilization levels of HTRA proteins were as follows; HTRA1^PD(SA) 700 RU, HTRA1^PD 900 RU, HTRA1^PD-ABP 900 RU, HTRA2^PD/PDZ 500 RU, HTRA3^PD/PDZ 500 RU, HTRA4^PD/PDZ 500 RU. All CKPs were prepared in HBS-EP buffer (0.01 M HEPES pH 7.4, 0.15 M NaCl, 3 mM EDTA, 0.005% v/v Surfactant P20). All CKP concentrations were injected for 120 s at a flow rate of 30 μl/min. A reference channel was subtracted from the HTRA-captured channel.
Binding kinetics of peptides to HTRA1^PD(SA) were determined by flowing six serial three-fold dilutions of peptide over the HTRA1^PD(SA) immobilized surface using a single cycle kinetics model. CKP maximum concentrations were as follows: 1A7, 1A8, 1C10, 2D5, and 3A7, 300 nM; 1G10-ENI and 1D3-ENI, 100 nM; 3B3, 3000 nM; and CPI, 10,000 nM. Data were analyzed using GE BIA evaluation software using a 1:1 Langmuir binding model. The KD values, calculated from the determined kon and koff values, were the mean ± S.D. of 3–4 independent experiments.

The target of the next test is T2, HTRA1^PD/PDZ (Homo sapiens, UniProt Q92743).
T2 construct: made in house; host or cells: E. coli
T2 sequence (Q92743 161-480): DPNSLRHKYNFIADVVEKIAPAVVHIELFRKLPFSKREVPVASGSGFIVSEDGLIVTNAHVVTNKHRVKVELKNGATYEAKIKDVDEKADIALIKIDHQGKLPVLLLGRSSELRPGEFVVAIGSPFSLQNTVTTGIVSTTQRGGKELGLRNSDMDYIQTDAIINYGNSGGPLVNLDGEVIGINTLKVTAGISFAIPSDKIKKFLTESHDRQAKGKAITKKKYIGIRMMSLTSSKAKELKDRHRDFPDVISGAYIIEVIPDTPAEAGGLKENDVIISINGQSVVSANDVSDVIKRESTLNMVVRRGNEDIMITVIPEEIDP
Kind of test: H2-OPT selectivity assay, HTRA1^PD/PDZ. The class given is biochemical. Particulars: 3 nM HTRA1^PD/PDZ, 2 µM CKP (0.5 mM 7mer-ABP), 5 µM H2-OPT. On the procedure:
Assays with the fluorescence-quenched synthetic substrate Mca-IRRVSYSFK(Dnp)K (H2-OPT)[38],[60] were carried out essentially as described. CKP stock solutions in DMSO were diluted in TNC buffer (dilution series for IC50 determinations, or final concentration of 2 µM for selectivity assay or as indicated for HTRA1/4 mutants) and incubated with enzymes in 96-well black optical bottom plates for 60 min at 37 °C. For selectivity experiments we used the 7mer-ABP as inhibitor, which was incubated with the proteases for 15 min at 37 °C. A 10 mM stock solution of H2-OPT in DMSO was diluted with water, prewarmed at 37 °C and then added to the CKP-enzyme mixtures. The final concentrations in the reaction mixtures were: 1 nM HTRA1^FL, 3 nM HTRA1^PD/PDZ, 1 nM HTRA1^PD, 1 nM HTRA2^PD/PDZ, 3 nM HTRA3^FL, 60 nM HTRA3^PD/PDZ, 6 nM HTRA4^FL, 1 µM HTRA4^PD/PDZ, 1 nM mouse HTRA1^PD, 25 nM HTRA1^PD-A202Y, 1 µM HTRA4^PD/PDZ-Y200A, 0.5 mM 7mer-ABP, 5 µM H2-OPT, and 0.25% DMSO. The kinetics of substrate cleavage was measured at 37 °C on a SpectraMax M5 microplate reader with excitation of 328 nm and emission of 393 nm. The determined initial rates of cleavage were expressed as percent of control (DMSO control) after subtracting the baseline rates (without enzyme). IC50 values were determined by Sigmoidal 4PL modeling of multiple data points from serial dilutions of CKPs using Prism 9 software (GraphPad). […]

For a further test, the target named is T3, HTRA3^PD/PDZ, HTRA3^FL (Homo sapiens, UniProt P83110).
T3 construct: purchased Abcam (FL form); the PD/PDZ form was made in house in E. coli ab134450
Nature of the test: Fluorescence-quenched casein-BODIPY assay, HTRA3. It counts as biochemical. Particulars: 2 µM CKP (0.5 mM 7mer-ABP). On the procedure: The fluorescence-quenched casein-BODIPY® assay (EnzCheck®, Thermo Fisher Scientific) was carried out in TNC buffer (50 mM Tris pH 8.0, 200 mM NaCl, 0.25% CHAPS) at 37 °C in 96-well black optical bottom plates (Nalge Nunc Int., Rochester, NY). Enzymes were incubated with CKPs or DMSO control for 15 min prior to addition of casein substrate. The reactant concentrations were: 30 nM HTRA1^FL, 30 nM HTRA1^PD/PDZ, 30 nM HTRA1^PD, 30 nM HTRA2^PD/PDZ, 30 nM HTRA3^FL, 100 nM HTRA3^PD/PDZ, 30 nM HTRA4^FL, 300 nM HTRA4^PD/PDZ, 2 µM CKP, 5 µg/ml casein substrate and 0.25% DMSO. For selectivity assays, 0.5 mM 7mer-ABP was used as positive control. The kinetics of substrate cleavage were measured at 37 °C on a SpectraMax M5 microplate reader (Molecular Devices) with excitation of 485 nm and emission of 530 nm for 30 min (HTRA1 and HTRA2) or 5 h (HTRA3 and HTRA4). The determined initial rates of cleavage were expressed as percent of control (DMSO control) after subtracting the baseline rates (without enzyme).

[1] abbreviates: SPR Biacore S200, 25 °C, single cycle kinetics, 1:1 Langmuir model.

T1 sequence (Q92743 161-379 S328A): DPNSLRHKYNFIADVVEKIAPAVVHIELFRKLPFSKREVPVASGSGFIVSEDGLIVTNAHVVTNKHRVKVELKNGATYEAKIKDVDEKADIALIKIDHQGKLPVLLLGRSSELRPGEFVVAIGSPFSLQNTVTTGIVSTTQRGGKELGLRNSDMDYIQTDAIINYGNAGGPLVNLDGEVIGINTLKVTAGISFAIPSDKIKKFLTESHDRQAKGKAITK

As for `CC[C@H](C)[C@H](NC(=O)[C@@H]1CCCN1C(=O)[C@H](CC(=O)O)NC(=O)[C@H](C)NC(=O)[C@@H](N)Cc1c[nH]cn1)C(=O)N[C@H]1CSSC[C@@H]2NC(=O)[C@H](Cc3ccccc3)NC(=O)[C@H](Cc3c[nH]c4ccccc34)NC(=O)[C@H](C)NC(=O)CNC(=O)[C@H](CO)NC(=O)[C@@H]3CSSC[C@@H](C(=O)NCC(=O)N4CCC[C@H]4C(=O)N[C@@H](Cc4ccc(O)cc4)C(=O)N[C@H](C(=O)NCC(N)=O)C(C)C)NC(=O)[C@H](CO)NC(=O)[C@H](Cc4c[nH]c5ccccc45)NC(=O)[C@H]([C@@H](C)O)NC(=O)[C@H](C)NC(=O)[C@H](Cc4ccc(O)cc4)NC(=O)[C@H](Cc4ccc(O)cc4)NC(=O)[C@H](CSSC[C@H](NC(=O)[C@@H]4CCCN4C(=O)[C@H](CCCCN)NC(=O)[C@H](CC(N)=O)NC1=O)C(=O)N[C@@H](CCCCN)C(=O)N[C@@H]([C@@H](C)O)C(=O)N[C@@H](Cc1c[nH]cn1)C(=O)N[C@@H](CC(=O)O)C(=O)N[C@@H](CC(=O)O)C(=O)N3)NC(=O)[C@H](C)NC(=O)[C@H](CCC(N)=O)NC2=O` [3B3] (H-HADPICNKPCKTHDDCSGAWFCQACYYATWSCGPYVG-NH2; disulfide 6-22, 10-25, 16-32), at HTRA1^PD(SA) (setting [1]), the koff was 3.8 ± 0.5 s-1 x10-4 and the kon is reported as 1.1 ± 0.2 M-1 s-1 x104. Further, the Kd at HTRA1^PD(SA) (SPR, calculated from kon and koff, CPI up to 10 µM) was 34 nM.

As for DPMFKLV-phosphonate [7mer-ABP], the “Inhibition of HTRA1^PD/PDZ, H2-OPT (% of control)” value on HTRA1^PD/PDZ is “significantly inhibited”. Moreover, at HTRA3^PD/PDZ, HTRA3^FL (30 nM HTRA3^FL), the “Inhibition of HTRA3^FL, casein-BODIPY cleavage (% of control)” value is “significantly inhibited”. In addition, the “Inhibition of HTRA3^PD/PDZ, casein-BODIPY cleavage (% of control)” value at HTRA3^PD/PDZ, HTRA3^FL (100 nM HTRA3^PD/PDZ) was “significantly inhibited”.

The record behind these values is paper PMC11111691, “Cystine-knot peptide inhibitors of HTRA1 bind to a cryptic pocket within the active site region” (Nature Communications, 2024).
